In article PMC6928863, “Development of Human Serum Albumin Selective Fluorescent Probe Using Thieno[3,2-b]pyridine-5(4H)-one Fluorophore Derivatives” (Sensors (Basel, Switzerland), 2019):
pKd: −log10 of the molar value.

Target: T1, human serum albumin (HSA) (Homo sapiens, UniProt P02768)
T1 construct: gene ALB
Assay: fluorescence titration (one-site fit), Job's plot […], site-marker displacement
Format: binding

T1 sequence (P02768 25-609): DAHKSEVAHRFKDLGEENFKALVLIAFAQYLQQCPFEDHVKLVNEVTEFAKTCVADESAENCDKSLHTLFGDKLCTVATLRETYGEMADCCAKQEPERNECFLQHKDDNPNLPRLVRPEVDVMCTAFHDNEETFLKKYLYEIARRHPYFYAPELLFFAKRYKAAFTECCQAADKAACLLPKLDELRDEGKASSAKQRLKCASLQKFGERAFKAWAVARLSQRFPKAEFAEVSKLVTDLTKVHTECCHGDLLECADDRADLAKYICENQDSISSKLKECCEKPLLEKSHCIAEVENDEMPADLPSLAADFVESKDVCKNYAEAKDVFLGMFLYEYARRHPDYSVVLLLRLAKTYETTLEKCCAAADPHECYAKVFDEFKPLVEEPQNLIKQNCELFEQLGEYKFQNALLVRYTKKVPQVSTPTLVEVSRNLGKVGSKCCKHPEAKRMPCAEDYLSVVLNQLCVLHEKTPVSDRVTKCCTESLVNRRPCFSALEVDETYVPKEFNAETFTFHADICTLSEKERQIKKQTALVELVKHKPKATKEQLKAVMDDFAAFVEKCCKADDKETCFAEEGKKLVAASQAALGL

CCN(CC)c1ccc(-c2cc3c(s2)c(C(=O)O)cc(=O)n3C)cc1 [compound 4, KF 4]
pKd: 5.27
